Measurements taken from patent US5025036A, “Catechol carboxylic acids” (Hoffmann-La Roche Inc., priority 1989, dated 1991).
pIC50: −log10 of the molar value. Where a name gives a salt, the structure may show the parent alone.

Columns and labels:
[1] = biological target: T1, Δ^5 -lipoxygenase from rat basophilic leukemia (RBL-1) cells (Rattus norvegicus, UniProt P12527); assay: In vitro test for Δ^5-lipoxygenase inhibitors (5-HETE radioimmunoassay); assay type: biochemical; conditions: for pIC50: RBL-1 5-LO, 5-HETE formation, read-out: Inhib. of Δ^5 Lipoxygenase IC50
T1 construct: The isolated cytosolic fraction was stored in liquid N2 for up to 8 weeks without loss of 5-LO enzyme activity; endogenous in cells; host or cells: RBL-1 cells (ATCC CRL 1378), 113,000×g supernatant (cytosol)
T1 sequence (P12527 1-673): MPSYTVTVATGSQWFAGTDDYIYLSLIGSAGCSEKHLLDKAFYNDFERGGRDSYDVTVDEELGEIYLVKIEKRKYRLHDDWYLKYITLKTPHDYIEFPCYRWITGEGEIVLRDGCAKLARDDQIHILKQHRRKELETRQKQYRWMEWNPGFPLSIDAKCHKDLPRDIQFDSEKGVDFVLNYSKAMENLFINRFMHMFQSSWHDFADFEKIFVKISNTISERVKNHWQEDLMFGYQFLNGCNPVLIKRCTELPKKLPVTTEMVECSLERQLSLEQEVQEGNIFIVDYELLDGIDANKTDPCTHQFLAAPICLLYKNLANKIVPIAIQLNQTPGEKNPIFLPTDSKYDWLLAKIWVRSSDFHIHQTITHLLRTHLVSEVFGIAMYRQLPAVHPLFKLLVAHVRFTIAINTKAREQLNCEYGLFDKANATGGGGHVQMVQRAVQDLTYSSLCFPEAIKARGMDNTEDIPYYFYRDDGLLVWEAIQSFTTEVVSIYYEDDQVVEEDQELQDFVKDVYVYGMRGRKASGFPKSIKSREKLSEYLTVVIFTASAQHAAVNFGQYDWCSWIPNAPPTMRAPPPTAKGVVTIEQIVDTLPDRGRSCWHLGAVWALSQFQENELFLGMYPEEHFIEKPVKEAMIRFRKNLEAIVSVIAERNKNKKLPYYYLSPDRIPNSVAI
Procedure: RBL-1 cells (CRL 1378) were obtained from the American Type Culture Collection, Rockville, MD. DMEM and glutamine were purchased from Flow Labs, McLean, Va. FBS (Gibco, Grand Island, N.Y.) was heat-inactivated for 1 hour at 56° C. Reagents for protein determinations were obtained from Biorad, Rockville Center, N.Y. Arachidonic acid (approx. 99%), ATP (disodium salt), BHT, dextran (clinical grade), tetrasodium EDTA, gelatin, gentamycin sulfate solution, reduced glutathione, 1 M HEPES buffer, indomethacin, NaCl, reduced NADPH, Trizma 7.2, and Trizma 8.5 were purchased from Sigma Chemical, St. Louis, Mo. CaCL2 dihydrate, Norit A charcoal, and citric acid monohydrate were obtained from Fisher Scientific, Pittsburgh, Pa. […] A synthetic 5-HETE standard was supplied by Dr. M. Rosenberger, Dept. of Medicinal Chemistry, Hoffmann La-Roche, Nutley, N.J.; [see Corey, E. J., and Hashimoto, S. (1981) Tet. […] Approximately 7-9 days after thawing, RBL-1 cells growing in log phase were seeded at a density of 7500 viable cells/ml in a closed 89-liter spinner flask. […] RBL-1 cells were harvested by centrifugation at 4° C. at 1500×g for 10 minutes and were washed 3 times with ice cold 0.05M tris-hCl, pH 7.2, tetrasodium EDTA (buffer 1). The cells were washed last in 0.05M Tris-HCl containing 14 μM indomethacin, 1 mM glutathione, 1.5 mM NaCl, and 1 mM tetrasodium EDTA (buffer 2), resuspended at a density of 5×108'/ml approximately 10 ml) and disrupted manually at 4° C. using a 40 ml Dounce (type A pestle) homogenizer. After 5 minutes of homogenization, 95% cell lysis was confirmed by phase contrast microscopy. The broken cells were diluted 1:2 with buffer 2 and centrifuged at 12,380×g for 10 minutes at 4° C. to pellet cellular debris and granules. The 12,380×g supernatant was centrifuged at 113,000×g for 60 minutes to pellet microsomes. The high-speed supernatant (5.9±0.48 mg/ml protein) was frozen immediately in 1 ml aliquots using a dry ice/acetone bath. The isolated cytosolic fraction was stored in liquid N2 for up to 8 weeks without loss of 5-LO enzyme activity. Compounds were dissolved at 25 mM concentration in DMSO, then diluted to final concentrations using 95% ethanol. For a typical enzyme assay, the partially purified 5-LO preparation was preincubated with drug or vehicle for 10 minutes at 30° C. The assay tubes were then transferred at a 37° C. water bath where they received arachidonic acid (8.25 μM final concentration) to initiate 5-LO activity. […] The samples were immediately cooled on ice and neutralized by dilution with 0.05M Tris-HCl, pH 8.5, which contained 25 mg/1 BHT. A boiled cytosol control was placed at the end of each assay to emasure non-enzymatic oxidation of arachidonic acid. […] Under the assay conditions described, the 5-LO catalyzed the conversion of arachidonic acid to 5-HPETE which, as a consequence of peroxidase activity, was reduced to 5-HETE. A specific radioimmunoassay was employed to quantitate the amount (pmoles) of 5-HETE formed during the enzyme reaction. To prepare the immunogen, Dr. M. Rosenberger (Dept. of Medicinal Chemistry) converted the racemic 5-HETE lactone (Corey, E. J., and Hashimoto, S. (1981) Tet. Letters, 22, 299-302) to its hydrazine derivative. The hydrazide was conjugated to thiolated Keyhole Limpet Hemocyanin (Young, […]., and Rokach, J. (1982) Prostaglandins 23, 603-613) using N-ethyl-maleimide as previously described for LTB4 by (Young, R., N, Zomboni, R. and Rokach, J. 91983) Prostaglandins, 26, 605-613). New Zealand White rabbits received multiple intradermal injections on their backs with […] conjugate emulsified in complete Freund's adjuvant. A schedule of injections reported by Salmon (Salmon, J. A. (1978) Prostaglandins, 15, 383-397) was followed. After the monthly i.p. booster injections, blood was obtained from the marginal ear vein 5-7 days later and assessed for antibody titer. […]

Carrageenan pleurisy = assay: Carrageenan Pleurisy Test (In Vivo); design: species or system male Lewis rats; conditions: Rattus norvegicus, po; at 100 mg/kg p.o; read-out: Rat Carrageenan Pleurisy % Inhib. of Exudate Volume
Procedure: The animals utilized in these studies were male Lewis rats (Charles River Breeding Laboratories) weighing between 230-250 g. […] At 5 or 24 hours after CG injection, the rats were killed by decapitation, exsanguinated, and the pleural cavity exposed by cutting the ribs on both sides of the sternum. The exudate fluid was removed from the pleural cavity with disposable plastic pipettes and its volume quantitated. The pleural cavity was then washed once with phosphate buffered saline containing fetal bovine serum (1:1) and the washings combined with the exudate. The total number of cells in the pleural cavity was quantitated using a Coulter Counter (Model ZM) adjusted to exclude any contaminating RBC. (Published in "Plant Flavonoids in Biology & Medicine: Biochemical, Pharmacological and Structure-Activity Relationships" p. 231-242 (1986) Alan R. Liss, Inc.)

ear edema = assay: Mouse Ear Edema Test (In Vivo), arachidonic acid; design: species or system CD-1 male mice; conditions: topical, 1 h, at 1 mg topically
Source text: Invest. Dermatol. 80:48 (1983) and Hames, Opas and Bonney, "Arachidonic Acid Metabolites in Mouse Ear Edema" Advances in Inflammation Research, 11:57 (1986). […] CD-1 male mice weighing 15 to 25 g were employed, and they were designated as follows: (1) Control Group, in which no arachidonic acid or test compound was to be applied, (2) Arachidonic Acid-Treated Group, in which no test compound was to be applied, and (3) Treated Group, in which the test compound was to be applied first, followed by the application of arachidonic acid. In the case of the Group (3) animals, the test compound, dissolved in acetone, was applied to the dorsal surface of the right ear of the mouse with a 25-microliter pipettor, with the dose of the test compound being varied. After 0.5 hours in some cases and 4 hours in others, the arachidonic acid was topically applied in the same manner as above to the pretreated ear areas. In each case of arachidonic acid application, an amount of 0.5 mg dissolved in 25 microliters of acetone was used. After 1 hour, the mice were sacrificed by carbon dioxide inhalation. A 6 mm-diameter standard biopsy punch was used to obtain a uniform tissue sample from the ear of each mouse so treated, and the tissue samples were weighed to the nearest 0.1 mg. The percent inhibition of ear edema formation was calculated as follows: [formula]

| inhibition at 0.1 µM ([1]; read-out: Inhib. of Δ^5 Lipoxygenase, % inhibition at 0.1 μM) | pIC50 [1] | SMILES | inhibition in vivo at 100 mg/kg (Carrageenan pleurisy) | inhibition in vivo at 1 mg (ear edema) |
| --- | --- | --- | --- | --- |
| 95% |  | CCCc1c(OCCCCCCCCc2cccc(O)c2O)ccc(C(C)=O)c1O [1-[2-hydroxy-4-[8-(2,3-dihydroxyphenyl)octyloxy]-3-propylphenyl]ethanone] | 0% | 0% |
|  | 6.17 | CCCc1c(OCCCCCCc2cccc(O)c2O)ccc(C(=O)OCCN(CC)CC)c1O [4-[6-(2,3-Dihydroxyphenyl)hexyloxy]-2-hydroxy-3-propylbenzoic acid [2-(diethylamino)ethyl]ester hydrochloride] | 42% | 48% |
|  | 6.34 | CCCc1cc(C(=O)O)cc(CCC)c1OCCCCCCc1cccc(O)c1O [4-[6-(2,3-Dihydroxyphenyl)hexyloxy]-3,5-dipropylbenzoic acid] |  | 59% |
|  | 7.70 | CCCc1cc(C(=O)O)ccc1OCCCCCCc1cccc(O)c1O [4-[6-(2,3-Dihydroxyphenyl)hexyloxy]-3-propylbenzoic acid] | 0% | 52% |
